Where two headings read alike, the source gives them in different places.
Tests used:
[1] = tested on: HCV genotype 1b (Con1) replicon in HUH-7 cells; assay: HCV replicon luciferase reporter assay, genotype 1b; format: cell-based; conditions: Hepatitis C virus, 72 h, genotype 1b replicon, 3 days incubation
Outline: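 Replication was read as Renilla luciferase signal, using 7.5 μM EnduRen substrate with a 2-h incubation at 37 °C. The signal came from a HUH-7 line constitutively expressing a luciferase-tagged 1b (Con1) replicon carrying S1179I.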

[2] = tested on: HCV genotype 1a (H77 strain) replicon in HUH-7 cells; assay: HCV replicon luciferase reporter assay, genotype 1a; format: cell-based; conditions: Hepatitis C virus, 72 h, genotype 1a replicon, 3 days incubation
Outline: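 Stable HUH-7 line carrying luciferase-reporter genotype 1a (H77) replicon with adaptive NS3 P1496L and NS5A S2204I mutations; 3.0×10^3 cells/well in 4% FCS, 0.5% DMSO, twenty-point 3-fold titration, 3 days at 37 °C. Renilla luminescence with 7.5 μM EnduRen; EC50 by four-parameter logistic fit; CC50 by multiplexed Cell Titer-Blue.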

Structure (SMILES) | EC50 ([1]; read-out: LE_1b (EC50, range)) | EC50 ([2]; read-out: LE_1a (EC50, range)) | EC50 ([1]; read-out: LE_1b (EC50)) | EC50 ([2]; read-out: LE_1a (EC50))
COc1ccc2c(O[C@@H]3C[C@H]4C(=O)N[C@]5(C(=O)NS(=O)(=O)C6(C)CC6)C[C@H]5/C=C\CC[C@@H](C)O[C@@H](C)[C@H](NC(=O)OC(C)(C)C(C)(F)F)C(=O)N4C3)nc3c(c2c1)CCCO3 [Compound 2309, 3,3-difluoro-2-methylbutan-2-yl ((2R,6S,7S,9R,13aS,14aR,16aS,Z)-2-((9-methoxy-2,3-dihydro-1H-pyrano[2,3-c]isoquinolin-6-yl)oxy)-7,9-dimethyl-14a-(((1-methylcyclopropyl)sulfonyl)carbamoyl)-5,16-dioxo-2,3,5,6,7,9,10,11,13a,14,14a,15,16,16a-tetradecahydro-1H-cyclopropa[i]pyrrolo[1,2-e][1,5,8]oxadiazacyclopentadecin-6-yl)carbamate] | 0.51 to 1 nM | 0.51 to 1 nM | – | –
COc1ccc2c(O[C@@H]3C[C@H]4C(=O)N[C@]5(C(=O)NS(=O)(=O)C6(C)CC6)C[C@H]5/C=C\CC[C@@H](C)O[C@@H](C)[C@H](NC(=O)OC(C)(C)C(F)F)C(=O)N4C3)nc3c(c2c1)CCCO3 [Compound 2310, 1,1-difluoro-2-methylpropan-2-yl ((2R,6S,7S,9R,13aS,14aR,16aS,Z)-2-((9-methoxy-2,3-dihydro-1H-pyrano[2,3-c]isoquinolin-6-yl)oxy)-7,9-dimethyl-14a-(((1-methylcyclopropyl)sulfonyl)carbamoyl)-5,16-dioxo-2,3,5,6,7,9,10,11,13a,14,14a,15,16,16a-tetradecahydro-1H-cyclopropa[i]pyrrolo[1,2-e][1,5,8]oxadiazacyclopentadecin-6-yl)carbamate] | 0.1 to 0.5 nM | 0.1 to 0.5 nM | – | –
CC[C@@H]1O[C@H](C)CC/C=C\[C@@H]2C[C@@]2(C(=O)NS(=O)(=O)C2(C)CC2)NC(=O)[C@@H]2C[C@@H](Oc3nc4c(c5cc(OC)ccc35)CCCO4)CN2C(=O)[C@H]1NC(=O)OC(C)(C)C(F)F [Compound 2311, 1,1-difluoro-2-methylpropan-2-yl ((2R,6S,7S,9R,13aS,14aR,16aS,Z)-7-ethyl-2-((9-methoxy-2,3-dihydro-1H-pyrano[2,3-c]isoquinolin-6-yl)oxy)-9-methyl-14a-(((1-methylcyclopropyl)sulfonyl)carbamoyl)-5,16-dioxo-2,3,5,6,7,9,10,11,13a,14,14a,15,16,16a-tetradecahydro-1H-cyclopropa[i]pyrrolo[1,2-e][1,5,8]oxadiazacyclopentadecin-6-yl)carbamate] | 0.1 to 0.5 nM | 0.1 to 0.5 nM | – | –
COc1cnc(O[C@@H]2C[C@H]3C(=O)N[C@]4(C(=O)NS(=O)(=O)C5(C)CC5)C[C@H]4/C=C\CO[C@@H](C)C[C@@H](C)[C@H](NC(=O)OC(C)(C)C)C(=O)N3C2)c2ccccc12 [Compound 2601, tert-butyl ((2R,6S,7R,9S,13aS,14aR,16aS,Z)-2-((4-methoxyisoquinolin-1-yl)oxy)-7,9-dimethyl-14a-(((1-methylcyclopropyl)sulfonyl)carbamoyl)-5,16-dioxo-2,3,5,6,7,8,9,11,13a,14,14a,15,16,16a-tetradecahydro-1H-cyclopropa[e]pyrrolo[2,1-i][1,7,10]oxadiazacyclopentadecin-6-yl)carbamate] | 1.01 to 5 nM | 1.01 to 5 nM | – | –
COc1ccc2c(O[C@@H]3C[C@H]4C(=O)N[C@]5(C(=O)NS(=O)(=O)C6CC6)C[C@H]5/C=C\CO[C@@H](C)C[C@@H](C)[C@H](NC(=O)OC(C)(C)C)C(=O)N4C3)nccc2c1 [Compound 2603, tert-butyl ((2R,6S,7R,9S,13a5,14aR,16aS,Z)-14a-((cyclopropylsulfonyl)carbamoyl)-2-((6-methoxyisoquinolin-1-yl)oxy)-7,9-dimethyl-5,16-dioxo-2,3,5,6,7,8,9,11,13a,14,14a,15,16,16a-tetradecahydro-1H-cyclopropa[e]pyrrolo[2,1-i][1,7,10]oxadiazacyclopentadecin-6-yl)carbamate] | 5.01 to 35 nM | 5.01 to 35 nM | 6.64 nM | 9.08 nM

From patent US9598433B2, “Hepatitis C virus inhibitors” (BRISTOL-MYERS SQUIBB COMPANY, priority 2012, dated 2017)
